Measurements: publication PMC8904451, “Novel chalcone-derived pyrazoles as potential therapeutic agents for the treatment of non-small cell lung cancer” (Scientific Reports, 2022)

How the values were obtained:
[1] = system: A-549, H226, and H460 cells; experiment: Annexin V/PI apoptosis assay by flow cytometry; type: cell-based, human; details: 48 h, IC90, depending on the cell line; vehicle approximately 5%
Description: To examine whether the effect of PCH-1 on reducing the viability of lung cancer cells was the result of inducing apoptotic cell death, A-549, H226, and H460 cells were treated with the compound for 6, 24, and 48 h, and analyzed by Annexin V/propidium iodide (PI) double staining using flow cytometry (Fig. S1 in supplementary information). […] At 24 h of treatment with the compound, a slight increase in both early (Annexin V(+)/PI(−)) and late (Annexin V(+)/PI(+)) apoptotic fractions was observed. […] PI can enter only those cells with damaged plasma membrane, which enables to differentiate early apoptotic cells from late apoptotic and necrotic cells. Overall, biochemical changes involved in apoptotic cell death were prevailing, whereas necrotic changes were not observed. Furthermore, typical phenotypic features of cells undergoing apoptosis were visualized by fluorescent microscopy in Supplementary Fig. S2 and described in Supplementary Information.
Cells were seeded onto tissue culture plates and allowed to attach for 24 h. Next, the cells were treated with PCH-1 or Etoposide at IC90 concentration for 6, 24, and 48 h. […]

[2] = system: A-549, H226, and H460 cells; experiment: Colony formation assay; type: cell-based, human; details: 1, 5, 10 µM for 24 h, then 9 days culture
Description: Cells were seeded onto 6-well plates (500 cells/well) and allowed to attach for 24 h in a fresh RPMI medium. Next, the cells were pretreated with DMSO (1%) solution of the examined compound (at the concentrations of 1, 5, and 10 µM) for 24 h. The medium containing compound was then changed, and the cells were cultured for additional 9 days. After incubation, the cells were washed twice with phosphate-buffered saline (PBS), fixed with 100% methanol for 30 min, and stained with 0.5% crystal violet for 15 min. The colonies were photographed and counted by ImageJ software.

tubulin = experiment: HTS-tubulin polymerization assay; type: biochemical; details: 120-min kinetic reaction, absorbance 340 nm, vs vehicle
Description: To further evaluate whether the tubulin–microtubule system was the target site of PCH-1, in vitro microtubule polymerization assays were performed using the microtubule protein with Paclitaxel and Vincristine as a reference. Paclitaxel and Vincristine are antimitotic drugs that have been commonly used in conventional chemotherapy for decades. In 1979, it was shown that Paclitaxel accelerates the initiation of tubulin fiber polymerization and stabilizes the formed tubulin fibers in vitro, even in the absence of GTP or MAP in the solution[30]. Vincristine, on the other hand, binds to tubulin and inhibits its polymerization.
The assay was performed according to the manufacturer’s instructions. Briefly, compounds were diluted in DMSO to a concentration of 2 mM and then in GTB buffer to a concentration of 50 µM. In the wells of a 96-well plate (UV transparent, half surface wells) previously heated to 37 °C, 10 µl of dilutions of the test compounds were placed in duplicate. The plate was incubated for 2 min at 37 °C, and 100 µl of freshly prepared tubulin solution (4 mg/ml) in GTB-GTP buffer was then added. The plate was immediately placed in a Tecan SPARK 10 M plate reader, and the reaction kinetics were measured with the following settings: absorbance reading: 340 nm, 37 °C, interval: 45 s, number of cycles: 160.

H226 cells = experiment: MTT cell viability assay, H226; type: cell-based, human
Description: (§1) All the synthesized chalcone-derived pyrazoles were evaluated for their antiproliferative activity against three human non-small cell lung cancer cell lines: A-549, H226, and H460, and a nonmalignant human embryonic kidney cell line HEK293. Cisplatin and 5-fluorouracil (5-FU) were used as a reference. Cells were exposed to a range of PCH concentrations (0.5–100 µM) for 72 h and analyzed by 3-(4,5-dimethylthiazol-2-yl)-2,5-diphenyl-2H-tetrazolium bromide (MTT) assay. The results of the studies are expressed as the IC50 concentration that inhibits 50% growth of cells. […] Following treatment with PCH-1, the viability of all the tested cancer cell lines decreased in a concentration-dependent manner.
(§2) The cell viability assay was performed for A-549, H226, H460, and HEK293 cells after treatment with the test compounds by using the 3-(4,5-dimethylthiazol-2-yl)-2,5-diphenyltetrazolium bromide (MTT, Sigma-Aldrich) assay. Briefly, cells were seeded onto 96-well culture plates for attachment. After 24 h, triplicate wells were treated with DMSO (1%) and the agents. After 72 h of incubation at 37 °C in 5% CO2, the MTT solution (0.4 mg/ml) was added to each well. After 2–4 h of incubation, the medium was removed, and the formazan crystals were dissolved in 100 μl of DMSO. The absorption was measured at 450 nm with an ASYS UVM340 microplate reader (Biochrom Ltd.). The 50% inhibitory concentration (IC50) was defined as the concentration that reduced the absorbance of the DMSO-treated wells by 50% of the vehicle. The IC50 values were generated from GraphPad Prism 9 software by plotting the survival curve as a function of dose from 3 independent experiments.

H460 cells = experiment: MTT cell viability assay, H460; type: cell-based, human
Description: as §1, §2

A-549 cells = experiment: Cell cycle distribution by flow cytometry, cells synchronized with double-thymidine block; type: cell-based, human; details: synchronized A-549, IC90, prolonged exposure (up to 10 h)
Description: Promising antiproliferative properties of PCH-1 led us to further investigate the effect of this compound on cell cycle distribution. Therefore, cell cycle progression was analyzed by quantifying DNA content using flow cytometry. […] To thoroughly analyze the course of the cycle, A-549 cells were synchronized with a double-thymidine block in the G1 phase and treated with IC90 concentration of PCH-1 for the indicated time. Slight alterations of the division cycle were visible after 2 h of incubation with the compound.
Cells were seeded onto tissue culture plates and allowed to attach for 24 h. Unsynchronized cells were treated with PCH-1 or Etoposide at IC90 concentration for 24 and 48 h, while synchronized cells were treated with PCH-1 or Etoposide at IC90 concentration for 2, 4, 6, 8, and 10 h. Synchronization of the cells was performed as described previously by Chen et al.[77]. Next, the cells were trypsinized, fixed in ice-cold 75% ethanol, and stored overnight at − 20 °C. After centrifugation, the cells were rinsed with PBS and stained with […] PI (Sigma-Aldrich) and […] RNaseA (Thermo Fisher) in PBS for 30 min at RT. The distribution of the cells in different phases of the cell cycle was determined by flow cytometry (Guava EasyCyte 8 cell sorter, Merck Millipore) and FlowJo software v10. Each experiment was repeated independently three times.

IC50 (H226 cells; Homo sapiens, NCI-H226, 72 h, MTT, read-out: IC50 ± SD, growth inhibition, H226): 4.69 ± 0.43 µM
IC50 (H460 cells; Homo sapiens, NCI-H460, 72 h, MTT, read-out: IC50 ± SD, growth inhibition, H460): 8.4 ± 1.1 µM
SMILES: COc1ccc(C2CC(c3cc4c(cc3OC)OCO4)=NN2C(C)=O)cc1 (centres unmarked) [PCH-1, 1-[3-(6-methoxy-2H-1,3-benzodioxol-5-yl)-5-(4-methoxyphenyl)-4,5-dihydro-1H-pyrazol-1-yl]ethan-1-one]
late apoptotic phase (Annexin V(+)/PI(+)) cells [1]: 30–60%
number of colonies [2]: reduced the number of colonies in all the tested cell lines in a dose-dependent manner
effect on tubulin polymerization kinetics (tubulin): remarkably reduced the total mass of tubulin polymer
superior activity to the reference compound Cisplatin, H226 (H226 cells; 72 h IC50 ratio): ~3.7 fold
superior activity to the reference compound Cisplatin, H460 (H460 cells; 72 h IC50 ratio): ~2.6 fold
increase in G2/M population as compared to control (A-549 cells): 50.12%
